# Like-named read-outs stand apart in the source and are kept apart here.
# Experiments:
# Assay type in all cases: in vivo
# Capsella bursa-pastoris = experiment: Post-emergence foliage spray, pot culture, fresh weight inhibition (Tables 151-206; 20 days); conditions: Capsella bursa-pastoris, 480 h, read-out: Control effect (%) of A applied alone in corresponding dose
# Protocol: (§1) The above weeds were cultivated by a pot culture method. […] Full and uniform weed seeds were selected, soaked in warm water at 25° C. for 6 hours, and germinated in a 28° C. biochemical incubator (darkness). The weed seeds that had just germinatedwere evenly placed on the surface of the soil and then covered with 0.5-1 cm soil according to the sizes of seeds.
# (§2) The technical materials were all dissolved in acetone, and diluted with an aqueous solution containing 0.1% emulsifier Tween-80. The dilution is performed as required.
# (§3) A ratio of the active ingredient A to the active ingredient B and amounts thereof in each group depends on the characteristics and toxicity of the two agents, as well as the main application purpose of a corresponding formulation. Based on the pre-tests in this study, the dosage of the active ingredient A and B applied alone and in combination were shown in the tables. Water containing the solvent and emulsifier same with the above groups but free of the agents was used as a blank control.
# (§4) In the stage of weeds with 3˜4 leaves, the weeds were thinned out to maintain 15 weeds per pot and 45 weeds for each treatment, then continued to be cultured to 4˜5 leaves stage of grassy weeds, 5˜6 leaves stage of broadleaf weeds, and treated.
# (§5) The well-cultured weeds were evenly placed on a platform with an area of 0.5 m^2, and a solution of agents was sprayed on the stems and leaves thereof by the 3WP-2000-type walking spray tower at a dosage of 450 kg/ha and at a spray pressure of 0.3 MPa. After all the solution was sprayed, the valve was closed. After 30 seconds, the door of the spray tower was opened, and the nutritional bowl was taken out. Then the valve was opened, and the spray tube was cleaned by spraying 50 ml of water.
# (§6) A pot-culture method was employed. For the cultivation of weeds, please refer to the Section 1.1), and “Pesticide guidelines for laboratory bioactivity tests—herbicides”. As to a method for applying agents, please refer to the section 2.3.2), that is, a foliage treatment was employed. After the treatment, the weeds were routinely cultured in a greenhouse.
# (§7) A method for investigating absolute number was employed, wherein whole seedlings of survival weeds were cut off with a blade along the soil surface, and the fresh weight of the weeds was weighed with an analytical balance. For dead weeds, the fresh weight thereof was zero.
# (§8) Wherein, in the formula, X represented the fresh weight inhibition rate of the active ingredient A in a dosage of P, and Y represented the fresh weight inhibition rate of the active ingredient B in a dosage of Q.
# Digitaria sanguinalis = experiment: as above; conditions: Digitaria sanguinalis, 480 h, read-out: Control effect (%) of A applied alone in corresponding dose
# Protocol: Table 151-206: Digitaria sanguinalis, Amaranthus retroflexus, Conyza Canadensis, Capsella bursa-pastoris, Eleusine indica were collected in Huangdao of Shandong Province, Sinapis arvensis were collected in Sixian of Anhui Province, Alopecurus japonicus were collected in Tianchang of Anhui Province, Veronica didyma were collected in Siyang of Jiangsu Province.
# as §1
# The culture was carried out in a controllable sunlight greenhouse at 20 to 30° C., in natural light, and relative humidity of 57% to 72%.
# as §2, §3
# Table 1-48, 51-98, 101-148, 151-206: […] per treatment, that is, a total of 60 weeds were treated in one treatment.
# as §4, with “Table 151-206: The agents were used for only once in the experiment. In” for “In”
# as §5, §6, §7
# Table 151-206: The investigation was performed after 20 days of the treatment for only once.
# Theoretical fresh weight inhibition rate of a combination of two active ingredients in each group was calculated by the Gowing method (E0=X+Y−X*Y/100), and then compared with an actually measured inhibition rate (E), thereby effect of the combination (hereafter referred to as combined effect) on weeds was evaluated: the value of E-E0, which was greater than 10%, corresponded to a synergistic effect, the value of E-E0, which was less than −10%, corresponded to an antagonistic effect, and the value of E-E0, which was from −10% to 10%, corresponded to an additional effect.
# Echinochloa caudate = experiment: Post-emergence foliage spray, pot culture, fresh weight inhibition (Tables 1-48, 51-98, 101-148; 24 days); conditions: Echinochloa, 576 h, read-out: Control effect (%) of B applied alone in corresponding dose
# Protocol: as §1, §2, §3
# (§9) In the stage of weeds with 3˜4 leaves, the weeds were thinned out to maintain 15 weeds per pot and 45 weeds for each treatment, then continued to be cultured to 5˜6 leaves stage of grassy weeds, 6˜7 leaves stage of broadleaf weeds, and treated.
# as §5, §6, §7, §8
# Echinochloa oryzoides = experiment: as above; conditions: Echinochloa oryzoides, 576 h, read-out: Control effect (%) of B applied alone in corresponding dose; for pest or weed control at 3.75 g/ha: 3.75 g a.i./ha; for pest or weed control at 7.5 g/ha: 7.5 g a.i./ha; for pest or weed control at 15 g/ha: 15 g a.i./ha
# Protocol: as §1, §2, §3, §9, §5, §6, §7, §8
# [1] = test system: Echinochloa crusgalli var. zelayensis; experiment: as above; conditions: Echinochloa crus-galli, foliar, 576 h, foliage spray, 24 days, read-out: Control effect (%) of B applied alone in corresponding dose; for pest or weed control at 3.75 g/ha: B 3.75 g a.i./ha; for pest or weed control at 7.5 g/ha: B 7.5 g a.i./ha; for pest or weed control at 15 g/ha: B 15 g a.i./ha
# Protocol: as §1, §2, §3, §9, §5, §6, §7, §8
# [2] = A alone 75 g a.i./ha, 20 days after treatment
# [3] = A alone 150 g a.i./ha, 20 days after treatment
structure (smiles),measurement,setting,value
C[C@@H](Oc1nc(F)c(Cl)c(N)c1Cl)C(=O)SCc1ccco1 [Compound A211],pest or weed control at 75 g/ha,"Capsella bursa-pastoris; A 75 g a.i./ha, 20 days",5.8%
same,pest or weed control at 150 g/ha,"Capsella bursa-pastoris; A 150 g a.i./ha, 20 days",14.6%
same,pest or weed control at 75 g/ha,"Digitaria sanguinalis; A 75 g a.i./ha, 20 days",31.3%
same,pest or weed control at 150 g/ha,"Digitaria sanguinalis; A 150 g a.i./ha, 20 days",68.3%
C[C@@H](Oc1ncc(Br)c(N)c1Br)C(=O)O [Compound A212],pest or weed control at 75 g/ha,"Capsella bursa-pastoris; A 75 g a.i./ha, 20 days",8.6%
same,pest or weed control at 150 g/ha,"Capsella bursa-pastoris; A 150 g a.i./ha, 20 days",14.5%
same,pest or weed control at 75 g/ha,"Digitaria sanguinalis; A 75 g a.i./ha, 20 days",11.5%
same,pest or weed control at 150 g/ha,"Digitaria sanguinalis; A 150 g a.i./ha, 20 days",24.6%
Cc1c(F)c(F)c(COC(=O)[C@@H](C)Oc2nc(F)c(Cl)c(N)c2Cl)c(F)c1F [Compound A213],pest or weed control at 75 g/ha,Capsella bursa-pastoris; [2],14.6%
same,pest or weed control at 150 g/ha,Capsella bursa-pastoris; [3],26.8%
same,pest or weed control at 75 g/ha,Digitaria sanguinalis; [2],14.9%
same,pest or weed control at 150 g/ha,Digitaria sanguinalis; [3],31.2%
CCCCOCCOC(=O)[C@@H](C)Oc1nc(F)c(Cl)c(N)c1Cl [Compound A214],pest or weed control at 75 g/ha,Capsella bursa-pastoris; [2],24.8%
same,pest or weed control at 150 g/ha,Capsella bursa-pastoris; [3],46.2%
same,pest or weed control at 75 g/ha,Digitaria sanguinalis; [2],21.9%
same,pest or weed control at 150 g/ha,Digitaria sanguinalis; [3],44.6%
COc1cc(OC)nc(Oc2cccc(Oc3nc(OC)cc(OC)n3)c2C(=O)O)n1 [bispyribac-sodium],pest or weed control at 1.875 g/ha,Echinochloa caudate; bispyribac-sodium 1.875 g a.i./ha,5.5%
same,pest or weed control at 3.75 g/ha,Echinochloa caudate; bispyribac-sodium 3.75 g a.i./ha,16%
same,pest or weed control at 7.5 g/ha,Echinochloa caudate; bispyribac-sodium 7.5 g a.i./ha,44.9%
same,pest or weed control at 15 g/ha,Echinochloa caudate; bispyribac-sodium 15 g a.i./ha,62.1%
same,pest or weed control at 1.875 g/ha,"Echinochloa oryzoides; Table 102, 1.875 g a.i./ha",4.7%
same,pest or weed control at 3.75 g/ha,Echinochloa oryzoides; Table 102,18.2%
same,pest or weed control at 7.5 g/ha,Echinochloa oryzoides; Table 102,44.1%
same,pest or weed control at 15 g/ha,Echinochloa oryzoides; Table 102,62%
same,pest or weed control at 1.875 g/ha,[1]; B 1.875 g a.i./ha,5.3%
same,pest or weed control at 3.75 g/ha,[1],17.4%
same,pest or weed control at 7.5 g/ha,[1],43.4%
same,pest or weed control at 15 g/ha,[1],62.9%
COCc1cnc(C2=NC(C)(C(C)C)C(=O)N2)c(C(=O)O)c1 (stereo not shown) [imazamox],pest or weed control at 3.75 g/ha,Echinochloa caudate; imazamox 3.75 g a.i./ha,7.6%
same,pest or weed control at 7.5 g/ha,Echinochloa caudate; imazamox 7.5 g a.i./ha,16.5%
same,pest or weed control at 15 g/ha,Echinochloa caudate; imazamox 15 g a.i./ha,24.8%
same,pest or weed control at 30 g/ha,Echinochloa caudate; imazamox 30 g a.i./ha,53.8%
same,pest or weed control at 3.75 g/ha,Echinochloa oryzoides; Table 109,4%
same,pest or weed control at 7.5 g/ha,Echinochloa oryzoides; Table 109,12.6%
same,pest or weed control at 15 g/ha,Echinochloa oryzoides; Table 109,27.6%
same,pest or weed control at 30 g/ha,"Echinochloa oryzoides; Table 109, 30 g a.i./ha",54.4%
same,pest or weed control at 3.75 g/ha,[1],6.9%
same,pest or weed control at 7.5 g/ha,[1],14.2%
same,pest or weed control at 15 g/ha,[1],25.1%
same,pest or weed control at 30 g/ha,[1]; B 30 g a.i./ha,54.8%
Cc1cnc(C2=NC(=O)C(C)(C(C)C)N2)c(C(=O)O)c1 (stereo not shown) [imazapic],pest or weed control at 9.375 g/ha,Echinochloa caudate; imazapic 9.375 g a.i./ha,6.8%
same,pest or weed control at 18.75 g/ha,Echinochloa caudate; imazapic 18.75 g a.i./ha,21.5%
same,pest or weed control at 37.5 g/ha,Echinochloa caudate; imazapic 37.5 g a.i./ha,28.6%
same,pest or weed control at 75 g/ha,Echinochloa caudate; imazapic 75 g a.i./ha,55.6%
same,pest or weed control at 9.375 g/ha,"Echinochloa oryzoides; Table 108, 9.375 g a.i./ha",4%
same,pest or weed control at 18.75 g/ha,"Echinochloa oryzoides; Table 108, 18.75 g a.i./ha",21.3%
same,pest or weed control at 37.5 g/ha,"Echinochloa oryzoides; Table 108, 37.5 g a.i./ha",30.4%
same,pest or weed control at 75 g/ha,"Echinochloa oryzoides; Table 108, 75 g a.i./ha",59.7%
same,pest or weed control at 9.375 g/ha,[1]; B 9.375 g a.i./ha,1.2%
same,pest or weed control at 18.75 g/ha,[1]; B 18.75 g a.i./ha,18.6%
same,pest or weed control at 37.5 g/ha,[1]; B 37.5 g a.i./ha,26.9%
same,pest or weed control at 75 g/ha,[1]; B 75 g a.i./ha,57%

# Reference: patent US20220264878A1, “HERBICIDAL COMPOSITION CONTAINING R-TYPE PYRIDYLOXY CARBOXYLIC ACID DERIVATIVE AND USE THEREOF” (Qingdao Kingagroot Chemical Compound Co., Ltd., priority 2019, published 2022)
